# From patent US6833389B2, “Use of thiamphenicol and derivatives thereof for the preparation of pharmaceutical compositions useful in the treatment of Chlamydia pneumoniae infections” (Zambon Group S.p.A., priority 2000, dated 2004)
# Read-outs that look alike come from different tables or passages of the source.
# Legend:
# Chlamydia pneumoniae [1] = experiment: MIC against Chlamydia pneumoniae strains in Hep-2 cell monolayers (inhibition of inclusion formation); format: cell-based
# Description: Chlamydia pneumoniae TW183 and Chlamydia pneumoniae 2023 were obtained from American Type Culture Collection. The other strains (No. 9 isolated) were clinically isolated in the period 1997-1999. […] Monolayers of Hep-2 cells were prepared by seeding 2×10^5 cell/ml in EMEM with 10% fetal calf serum supplemented with L-glutammine, on 12 mm cover slips and left at 35° C., 5% CO2 for 24 to 48 hours for confluent growth. The growth medium was removed and Hep-2 monolayers were inoculated with the different strains at predetermined concentration calculated to give 3-5×10^2 inclusions for well. The monolayers, inoculated with Chlamydia pneumoniae were centrifuged at 1700 g for 60 minutes at 30° C. […] In positive control no antibiotic was added and negative control were considered wells not inoculated with Chlamydia pneumoniae. […] All tests were run in duplicate. The number of inclusions were counted and the MIC (the lowest concentration at which complete inhibition of inclusion formation was observed) was determined.
# Chlamydia pneumoniae [2] = conditions: background statement; cited from earlier work
# Chlamydia trachomatis = conditions: literature (Ridgeway et al. 1979); markedly lower than erythromycin; cited from earlier work
# [3] = Chlamydia pneumoniae, 72 h, MIC range over the 11 Chlamydia pneumoniae strains, Hep-2 cells, 3 days, read-out: MIC
# [4] = Chlamydia pneumoniae, ATCC2023, strain ATCC 2023, test I, read-out: MIC
# [5] = Chlamydia pneumoniae, strain 1 (clinical isolate), test I, read-out: MIC
# [6] = Chlamydia pneumoniae, strain 2 (clinical isolate), test I, read-out: MIC
# [7] = Chlamydia pneumoniae, strain 2 (clinical isolate), test II, read-out: MIC
# [8] = Chlamydia pneumoniae, strain 3 (clinical isolate), test I, read-out: MIC
# [9] = Chlamydia pneumoniae, strain 3 (clinical isolate), test II, read-out: MIC
# [10] = Chlamydia pneumoniae, strain 4 (clinical isolate), test I, read-out: MIC
# [11] = Chlamydia pneumoniae, strain 4 (clinical isolate), test II, read-out: MIC
# [12] = Chlamydia pneumoniae, strain 5 (clinical isolate), test I, read-out: MIC
# [13] = Chlamydia pneumoniae, strain 5 (clinical isolate), test II, read-out: MIC
# [14] = Chlamydia pneumoniae, strain 6 (clinical isolate), test II, read-out: MIC
# [15] = Chlamydia pneumoniae, strain 7 (clinical isolate), test I, read-out: MIC
# [16] = Chlamydia pneumoniae, strain 7 (clinical isolate), test II, read-out: MIC
# [17] = Chlamydia pneumoniae, strain 8 (clinical isolate), test I, read-out: MIC
# [18] = Chlamydia pneumoniae, strain 8 (clinical isolate), test II, read-out: MIC
# [19] = Chlamydia pneumoniae, strain 9 (clinical isolate), test I, read-out: MIC
# [20] = Chlamydia pneumoniae, strain TW 183, test II, read-out: MIC
# [21] = Chlamydia pneumoniae, ATCC2023, strain ATCC 2023, test II, read-out: MIC
# [22] = Chlamydia pneumoniae, strain 1 (clinical isolate), test II, read-out: MIC
# [23] = Chlamydia pneumoniae, strain 6 (clinical isolate), test I, read-out: MIC
# [24] = Chlamydia pneumoniae, strain 9 (clinical isolate), test II, read-out: MIC
# [25] = Chlamydia pneumoniae, strain TW 183, test I, read-out: MIC
# [26] = strain 4 (clinical isolate), test I
# [27] = strain 7 (clinical isolate), test I
# [28] = strain 7 (clinical isolate), test II
# [29] = strain 8 (clinical isolate), test I
# [30] = strain 8 (clinical isolate), test II
# [31] = strain 9 (clinical isolate), test I
# [32] = strain 1 (clinical isolate), test I
# [33] = strain 1 (clinical isolate), test II
# [34] = strain 2 (clinical isolate), test I
# [35] = strain 2 (clinical isolate), test II
# [36] = strain 3 (clinical isolate), test I
# [37] = strain 3 (clinical isolate), test II
# [38] = strain 4 (clinical isolate), test II
# [39] = strain 5 (clinical isolate), test I
# [40] = strain 5 (clinical isolate), test II
# [41] = strain 6 (clinical isolate), test I
# [42] = strain 6 (clinical isolate), test II
# [43] = strain 9 (clinical isolate), test II
smiles,measurement,setting,value
"CC1(C)S[C@@H]2[C@H](NC(=O)[C@H](N)c3ccc(O)cc3)C(=O)N2[C@H]1C(=O)O [Amoxicillin, amoxicillin]",MIC,Chlamydia pneumoniae [1]; [3],> 16 µg/mL
"CC[C@H]1OC(=O)[C@H](C)[C@@H](O[C@H]2C[C@@](C)(OC)[C@@H](O)[C@H](C)O2)[C@H](C)[C@@H](O[C@@H]2O[C@H](C)C[C@H](N(C)C)[C@H]2O)[C@](C)(O)C[C@@H](C)CN(C)[C@H](C)[C@@H](O)[C@]1(C)O [Azithromycin, azithromycin]",MIC,Chlamydia pneumoniae [1]; [3],0.06 to 0.5 µg/mL
same,MIC,Chlamydia pneumoniae [1]; [4],0.06 µg/mL
same,MIC,Chlamydia pneumoniae [1]; [5],0.5 µg/mL
same,MIC,Chlamydia pneumoniae [1]; [6],0.06 µg/mL
same,MIC,Chlamydia pneumoniae [1]; [7],0.25 µg/mL
same,MIC,Chlamydia pneumoniae [1]; [8],0.06 µg/mL
same,MIC,Chlamydia pneumoniae [1]; [9],0.06 µg/mL
same,MIC,Chlamydia pneumoniae [1]; [10],0.5 µg/mL
same,MIC,Chlamydia pneumoniae [1]; [11],0.5 µg/mL
same,MIC,Chlamydia pneumoniae [1]; [12],0.25 µg/mL
same,MIC,Chlamydia pneumoniae [1]; [13],0.25 µg/mL
same,MIC,Chlamydia pneumoniae [1]; [14],0.25 µg/mL
same,MIC,Chlamydia pneumoniae [1]; [15],0.25 µg/mL
same,MIC,Chlamydia pneumoniae [1]; [16],0.25 µg/mL
same,MIC,Chlamydia pneumoniae [1]; [17],0.25 µg/mL
same,MIC,Chlamydia pneumoniae [1]; [18],0.25 µg/mL
same,MIC,Chlamydia pneumoniae [1]; [19],0.5 µg/mL
same,MIC,Chlamydia pneumoniae [1]; [20],0.25 µg/mL
same,activity in vitro against Chlamydia pneumoniae,Chlamydia pneumoniae [2],active
"CO/N=C(\C(=O)N[C@@H]1C(=O)N2C(C(=O)O)=C(CSc3nc(=O)c(=O)[nH]n3C)CS[C@H]12)c1csc(N)n1 [Ceftriaxone, ceftriaxone]",MIC,Chlamydia pneumoniae [1]; [3],> 16 µg/mL
"CC[C@H]1OC(=O)[C@H](C)[C@@H](O[C@H]2C[C@@](C)(OC)[C@@H](O)[C@H](C)O2)[C@H](C)[C@@H](O[C@@H]2O[C@H](C)C[C@H](N(C)C)[C@H]2O)[C@](C)(OC)C[C@@H](C)C(=O)[C@H](C)[C@@H](O)[C@]1(C)O [Clarithromycin, clarithromycin]",MIC,Chlamydia pneumoniae [1]; Chlamydia pneumoniae,0.125 µg/mL
same,MIC,Chlamydia pneumoniae [1]; [3],0.03 to 0.25 µg/mL
same,MIC,Chlamydia pneumoniae [1]; [4],0.03 µg/mL
same,MIC,Chlamydia pneumoniae [1]; [21],0.03 µg/mL
same,MIC,Chlamydia pneumoniae [1]; [5],0.03 µg/mL
same,MIC,Chlamydia pneumoniae [1]; [22],0.03 µg/mL
same,MIC,Chlamydia pneumoniae [1]; [6],0.25 µg/mL
same,MIC,Chlamydia pneumoniae [1]; [7],0.03 µg/mL
same,MIC,Chlamydia pneumoniae [1]; [8],0.03 µg/mL
same,MIC,Chlamydia pneumoniae [1]; [9],0.03 µg/mL
same,MIC,Chlamydia pneumoniae [1]; [11],0.06 µg/mL
same,MIC,Chlamydia pneumoniae [1]; [12],0.03 µg/mL
same,MIC,Chlamydia pneumoniae [1]; [13],0.03 µg/mL
same,MIC,Chlamydia pneumoniae [1]; [23],0.03 µg/mL
same,MIC,Chlamydia pneumoniae [1]; [24],0.03 µg/mL
same,MIC,Chlamydia pneumoniae [1]; [25],0.03 µg/mL
same,MIC,Chlamydia pneumoniae [1]; [26],0.125 µg/mL
same,MIC,Chlamydia pneumoniae [1]; [27],0.125 µg/mL
same,MIC,Chlamydia pneumoniae [1]; [28],0.125 µg/mL
same,MIC,Chlamydia pneumoniae [1]; [29],0.125 µg/mL
same,MIC,Chlamydia pneumoniae [1]; [30],0.125 µg/mL
same,MIC,Chlamydia pneumoniae [1]; [31],0.125 µg/mL
same,MIC,"Chlamydia pneumoniae [1]; strain TW 183, test II",0.125 µg/mL
same,activity in vitro against Chlamydia pneumoniae,Chlamydia pneumoniae [2],active
"C[C@H]1c2cccc(O)c2C(=O)C2=C(O)[C@]3(O)C(=O)C(C(N)=O)=C(O)[C@@H](N(C)C)[C@@H]3[C@@H](O)[C@@H]21 [Doxycycline, doxycycline]",MIC,Chlamydia pneumoniae [1]; [3],0.06 to 0.25 µg/mL
same,MIC,Chlamydia pneumoniae [1]; [4],0.06 µg/mL
same,MIC,Chlamydia pneumoniae [1]; [21],0.06 µg/mL
same,MIC,Chlamydia pneumoniae [1]; [5],0.06 µg/mL
same,MIC,Chlamydia pneumoniae [1]; [22],0.125 µg/mL
same,MIC,Chlamydia pneumoniae [1]; [6],0.125 µg/mL
same,MIC,Chlamydia pneumoniae [1]; [7],0.125 µg/mL
same,MIC,Chlamydia pneumoniae [1]; [8],0.125 µg/mL
same,MIC,Chlamydia pneumoniae [1]; [9],0.125 µg/mL
same,MIC,Chlamydia pneumoniae [1]; [10],0.06 µg/mL
same,MIC,Chlamydia pneumoniae [1]; [11],0.06 µg/mL
same,MIC,Chlamydia pneumoniae [1]; [12],0.125 µg/mL
same,MIC,Chlamydia pneumoniae [1]; [13],0.06 µg/mL
same,MIC,Chlamydia pneumoniae [1]; [23],0.06 µg/mL
same,MIC,Chlamydia pneumoniae [1]; [14],0.06 µg/mL
same,MIC,Chlamydia pneumoniae [1]; [15],0.06 µg/mL
same,MIC,Chlamydia pneumoniae [1]; [16],0.06 µg/mL
same,MIC,Chlamydia pneumoniae [1]; [17],0.25 µg/mL
same,MIC,Chlamydia pneumoniae [1]; [18],0.06 µg/mL
same,MIC,Chlamydia pneumoniae [1]; [19],0.25 µg/mL
same,MIC,Chlamydia pneumoniae [1]; [24],0.25 µg/mL
same,MIC,Chlamydia pneumoniae [1]; [25],0.125 µg/mL
same,MIC,Chlamydia pneumoniae [1]; [20],0.25 µg/mL
"CC(=O)N[C@@H](CS)C(=O)O.CS(=O)(=O)c1ccc([C@@H](O)[C@@H](COC(=O)CN)NC(=O)C(Cl)Cl)cc1 [TGA, thiamphenicol glycinate acetylcysteinate]",MIC,Chlamydia pneumoniae [1]; [32],0.03 µg/mL
same,MIC,Chlamydia pneumoniae [1]; [33],0.06 µg/mL
same,MIC,Chlamydia pneumoniae [1]; [34],0.03 µg/mL
same,MIC,Chlamydia pneumoniae [1]; [35],0.03 µg/mL
same,MIC,Chlamydia pneumoniae [1]; [36],0.125 µg/mL
same,MIC,Chlamydia pneumoniae [1]; [37],0.125 µg/mL
same,MIC,Chlamydia pneumoniae [1]; [26],0.25 µg/mL
same,MIC,Chlamydia pneumoniae [1]; [38],0.06 µg/mL
same,MIC,Chlamydia pneumoniae [1]; [39],0.125 µg/mL
same,MIC,Chlamydia pneumoniae [1]; [40],0.125 µg/mL
same,MIC,Chlamydia pneumoniae [1]; [41],0.03 µg/mL
same,MIC,Chlamydia pneumoniae [1]; [42],0.03 µg/mL
same,MIC,Chlamydia pneumoniae [1]; [27],0.03 µg/mL
same,MIC,Chlamydia pneumoniae [1]; [28],0.03 µg/mL
same,MIC,Chlamydia pneumoniae [1]; [29],0.125 µg/mL
same,MIC,Chlamydia pneumoniae [1]; [30],0.03 µg/mL
same,MIC,Chlamydia pneumoniae [1]; [31],0.125 µg/mL
same,MIC,Chlamydia pneumoniae [1]; [43],0.125 µg/mL
same,MIC,"Chlamydia pneumoniae [1]; strain ATCC 2023, test I",0.03 µg/mL
same,MIC,"Chlamydia pneumoniae [1]; strain ATCC 2023, test II",0.03 µg/mL
same,MIC,"Chlamydia pneumoniae [1]; strain TW 183, test I",0.06 µg/mL
same,MIC,"Chlamydia pneumoniae [1]; strain TW 183, test II",0.03 µg/mL
"CN(C)[C@@H]1C(O)=C(C(N)=O)C(=O)[C@@]2(O)C(O)=C3C(=O)c4c(O)cccc4[C@@](C)(O)[C@H]3C[C@@H]12.Cl [Tetracycline, tetracycline hydrochloride]",MIC,"Chlamydia pneumoniae [1]; MIC range over the 11 Chlamydia pneumoniae strains, Hep-2 cells, 3 days",0.06 to 0.5 µg/mL
same,MIC,Chlamydia pneumoniae [1]; [32],0.06 µg/mL
same,MIC,Chlamydia pneumoniae [1]; [33],0.06 µg/mL
same,MIC,Chlamydia pneumoniae [1]; [34],0.06 µg/mL
same,MIC,Chlamydia pneumoniae [1]; [35],0.06 µg/mL
same,MIC,Chlamydia pneumoniae [1]; [36],0.125 µg/mL
same,MIC,Chlamydia pneumoniae [1]; [37],0.125 µg/mL
same,MIC,Chlamydia pneumoniae [1]; [26],0.125 µg/mL
same,MIC,Chlamydia pneumoniae [1]; [38],0.5 µg/mL
same,MIC,Chlamydia pneumoniae [1]; [39],0.125 µg/mL
same,MIC,Chlamydia pneumoniae [1]; [40],0.25 µg/mL
same,MIC,Chlamydia pneumoniae [1]; [41],0.06 µg/mL
same,MIC,Chlamydia pneumoniae [1]; [42],0.5 µg/mL
same,MIC,Chlamydia pneumoniae [1]; [27],0.125 µg/mL
same,MIC,Chlamydia pneumoniae [1]; [28],0.125 µg/mL
same,MIC,Chlamydia pneumoniae [1]; [29],0.06 µg/mL
same,MIC,Chlamydia pneumoniae [1]; [30],0.06 µg/mL
same,MIC,Chlamydia pneumoniae [1]; [31],0.06 µg/mL
same,MIC,Chlamydia pneumoniae [1]; [43],0.5 µg/mL
same,MIC,"Chlamydia pneumoniae [1]; strain ATCC 2023, test I",0.06 µg/mL
same,MIC,"Chlamydia pneumoniae [1]; strain ATCC 2023, test II",0.125 µg/mL
same,MIC,"Chlamydia pneumoniae [1]; strain TW 183, test I",0.06 µg/mL
same,MIC,"Chlamydia pneumoniae [1]; strain TW 183, test II",0.06 µg/mL
CS(=O)(=O)c1ccc([C@@H](O)[C@@H](CO)NC(=O)C(Cl)Cl)cc1 [thiamphenicol],MIC,Chlamydia pneumoniae [1]; [3],0.03 to 0.25 µg/mL
same,activity against Chlamydia trachomatis,Chlamydia trachomatis,active
